For data set [1], the system named is T. gondii mitochondrial membrane potential (cytochrome bc). The data set is described as follows: Mitochondrial membrane potential by the safranine method (T. gondii, compared with HFF). The format is cell-based, Toxoplasma gondii. The conditions noted are these: for Effect on T. gondii mitochondrial membrane potential: doses as high as 4 μM. As to the method: T.gondii and HFF Mitochondrial Membrane Potential Measurements—the mitochondrial membrane potential was measured by the safranine method according to Vercesi et al, 1998). Freshly egressed T. gondii tachyzoites were filtered and washed twice with intracellular buffer (125 mM sucrose, 65 mM KCl, 10 mM HEPES-KOH buffer, pH 7.2, 1 mM MgCl2 and 2.5 mM potassium phosphate). After washing, the parasites were resuspended in the same buffer at 10^9/ml. An aliquot of 50 μL of this suspension was added to a cuvette containing Safranin 0, 2.5 μM and Succinate 1 mM in final volume of 2 mL of the intracellular buffer. The fluorescence was measured with a Hitachi 7000 spectrofluorometer with setting Ex. 495/Em. 586. Once the baseline fluorescence is testable, 30 μM digitonin was added to permeabilize the parasites. 85 seconds after permeabilization, the THQ derivatives, dissolved in DMSO, were added. 5 μM of FCCP (Carbonyl cyanide-4-(trifluoromethoxy) phenylhydrazone) was used as an uncoupler reference for calculations and its effect was considered 100%. Similar conditions for measuring the mitochondrial potential of mammalian cells were used with the following changes: the mammalian cells were re-suspended at 10^8/ml. 50 μl of mammalian cells was also used for each run in a cuvette with […]. The substrate used for mammalian cells was 5 mM glutamate and 5 mM malate. A higher concentration of digitonin (50 μM) was used to permeabilize the mammalian cells. The compounds were added at about 400 seconds after permeabilization. Each experiment was repeated at least three times in duplicates. Statistical analysis, unpaired student t test, was performed using GraphPad Prism 8.0 (GraphPad Software, Inc., San Diego, Calif.).
Mitochondrial membrane potential measurements were performed with permeabilized T.gondii tachyzoites in suspension using safranin O, which loads into polarized membranes. T. gondii tachyzoites were permeabilized with digitonin to allow the mitochondrial substrate succinate to cross the membrane and energize the mitochondrion. The fluorescence of safranin O, which loads into energized mitochondria was used to measure the membrane potential. The energized state of the mitochondrion is observed by a decrease in fluorescence (FIGS. 3A,C,E). Trifluoromethoxy carbonylcyanide phenylhydrazone (FCCP) was used to depolarize the membrane, which causes the fluorescence to go up as shown in FIG. 3A. JAG21 depolarized the membrane potential even at concentrations as low as 2 nM (FIG. 3C,D). JAG21 and Atovaquone had similar effects on the mitochondrial membrane potential (FIG. 3D). […] The effect of these THQ compounds against the T. gondii mitochondrial membrane potential was greater than the effect on the human foreskin fibroblast membrane potential (FIG. 3E,F). […]

Data set [2] concerns Human Foreskin Fibroblast (HFF). Description: Cytotoxicity assay with WST-1 on HFF. The conditions noted are these: for Toxicity* (highest concentration tested that does not show toxicity to HFF): WST assay, second value of cell. The format is cell-based. As for the experimental part: PBS Sol/Toxicity pH7.4 refers to solubility of the compound in Phosphate Buffered Saline (PBS) at pH7.4. […] Tachy/Brady IC50 was determined in studies in which cultures of parasites in HFF were treated with varying concentrations of the compound and there was 50% inhibition of the replication (number) of parasites. Parasites were RH-YFP expressing tachyzoites (Tachy) and EGS (Brady) strains. Studies of effects of inhibitors on HFF or on T.gondii tachyzoites were performed with triplicate wells in at least two biological replicate experiments. Studies of effects on bradyzoites were performed at least twice in at least two biological replicate experiments. Compounds with much less inhibition of mammalian than T. gondii cytochrome bc in the saffarine enzyme assay (indicated by **) provide potential to further develop compounds, if unanticipated toxicity occurs from JAG21.
Cytotoxicity Assays in parallel with RH Strain T.gondii in vitro studies. Toxicity assays used WST-1 cell proliferation reagent (Roche) as in Fomovska et al. (2012). HFF were grown on a flat, clear-bottomed, black 96-well plate. Confluent HFF were treated with inhibitory compounds at concentrations of 10 μM and 50 μM. Compounds were diluted in IMDM-C, and 20 μL were added to each designated well, with triplicates for each condition. A gradient with 2 fold-decreasing concentrations of DMSO from 10% to 0% in colorless, translucent IMDM-C was used as a control. The plate was incubated for 72 hours at 37° C. 10 μL WST-1 reagent (Roche) were added to each well. Cells were incubated for 30-60 minutes. Absorbance was read using a fluorimeter at 420 nm. A higher degree of color change (and absorbance) indicated mitochondrial activity and cell viability.
Because T. gondii grows inside cells, if a compound were toxic to host HFF then it would make the compound appear to be spuriously effective (Fomovska et al. 2012; Fomovska et al. 2012a), when in actuality only toxicity for the host cell would be measured. Cytotoxicity to HFF was therefore assessed for all compounds at 10 μM. Results of this experiment are in Table 1, toxicity column. A two-way ANOVA and subsequent pairwise comparison found none of the differences in absorbance, compared to the media-DMSO vehicle controls, to be statistically significant (p>0.05). Most of these compounds are not toxic at 10 μM (the limit of solubility) and that cytotoxicity to cells can be attributed to DMSO in the solution, not the compound.
For orientation: Tetrazolium assays rely on reduction of a dye to a coloured formazan, in cell work by metabolically active cells.

The target of data set [3] is T1, P. falciparum bc1 complex cytochrome c reductase (Pfbc1) (Plasmodium falciparum, UniProt Q02768).
T1 construct: Parasite extract was then prepared by disruption with a sonicating probe; endogenous in cells; host or cells: P. falciparum 3D7 blood-stage parasites freed by saponin, sonicated extract
T1 sequence (Q02768 1-376): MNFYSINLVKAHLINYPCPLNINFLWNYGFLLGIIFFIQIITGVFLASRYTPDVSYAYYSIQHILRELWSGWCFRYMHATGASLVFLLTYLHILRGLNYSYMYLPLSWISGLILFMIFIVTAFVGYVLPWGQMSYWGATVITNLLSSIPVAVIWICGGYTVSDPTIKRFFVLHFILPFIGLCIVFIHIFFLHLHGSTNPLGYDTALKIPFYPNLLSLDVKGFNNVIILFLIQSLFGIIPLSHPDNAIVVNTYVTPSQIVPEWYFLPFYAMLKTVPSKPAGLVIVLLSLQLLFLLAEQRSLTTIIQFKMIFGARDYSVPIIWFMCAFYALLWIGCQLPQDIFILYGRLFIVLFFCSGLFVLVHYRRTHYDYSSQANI
Description: Pfbc1 native assay (cytochrome c reduction by parasite extract). The data set is classed as biochemical. The conditions noted are these: atovaquone 1 μM positive control, mean±S.D., N=4. As to the method: Enzyme assays. P. falciparum 3D7 strain were obtained from the Liverpool School of Tropical Medicine. Protease cocktail inhibitor was obtained from Roche. Bradford protein assay dye reagent was obtained from Bio-Rad. All other reagents were obtained from Sigma-Aldrich. Decylubiquinol was produced as per Fisher et al. (2009). In brief, 25 mg of decylubiquinone were dissolved in 400 μl of nitrogen-saturated hexane. An equal volume of aqueous 1 M sodium dithionite was added, and the mixture vortexed until colorless. […] Concentrations of decylubiquinol was determined spectrophotometrically on a Cary 300 Bio UV/visible spectrophotometer (Varian, UK) from absolute spectra, using ε288-320=8.1 mM-1·cm^−1. […]
The protocol for the preparation of parasite extract was adapted from Fisher et al. Free parasites were prepared from infected erythrocytes pooled from five T75 flasks, by adding 5 volumes of 0.15% (w/v) saponin in phosphate-buffered saline (137 mM NaCl, 2.7 mM KCl, 1.76 mM K2HPO4, 8.0 mM Na2HPO4, 5.5 mM D-glucose, pH 7.4) for 5 min, followed by three washes by centrifugation in RPMI containing HEPES (25 mM), and a final resuspension in potassium phosphate buffer (50 mM K2HPO4, 50 mM KH2PO4, 2 mM EDTA, pH7.4) containing a protease inhibitor cocktail (Complete Mini; Roche). […] The protein concentration of the parasite extract was determined by Bradford protein assay (Bio-Rad). […]

Data set [4] can be described thus: Kinetic/aqueous solubility in PBS pH 7.4. The conditions noted are these: for PBS Sol pH7.4: solubility in Phosphate Buffered Saline pH 7.4, first value of cell; for solubility: amorphous compounds. The format is physicochemical. As to the method:
PBS Sol/Toxicity pH7.4 refers to solubility of the compound in Phosphate Buffered Saline (PBS) at pH7.4. […] Parasites were RH-YFP expressing tachyzoites (Tachy) and EGS (Brady) strains. Studies of effects of inhibitors on HFF or on T.gondii tachyzoites were performed with triplicate wells in at least two biological replicate experiments. Studies of effects on bradyzoites were performed at least twice in at least two biological replicate experiments. Compounds with much less inhibition of mammalian than T. gondii cytochrome bc in the saffarine enzyme assay (indicated by **) provide potential to further develop compounds, if unanticipated toxicity occurs from JAG21.
(§1) Structure Activity Relationship (SAR) and comparison of effect on T.gondii and HFF enzyme activity. […] The MDCK-MDR1 Permeability Assay was also performed. […] These were measured by Chem Partners.

A short description of data set [5]: Metabolic stability in mouse liver microsomes. Particulars: predicted half-life in mouse liver microsomes; no unit in table (101 minutes for JAG021). The data set is classed as in vitro ADME.
The test system of data set [6] is P-glycoprotein (MDR1, ABCB1). Description: in vitro. The data set is classed as in vitro ADME, canine. Particulars: dog, MDCK-MDR1. As for the experimental part: as §1

Values after ≈ are worked out from the molar mass of the structure shown.

Consider `Cc1[nH]c2c(c(=O)c1-c1ccc(Oc3cccc(C(=O)O)c3)cc1)CCCC2` [JAG047], for which the “Effect on T. gondii mitochondrial membrane potential” value in data set [1] was “almost no effect”. Besides, in data set [2], the “Toxicity* (highest concentration tested that does not show toxicity to HFF)” value is given as “ND/5 μM”.
The inhibition is the drop in the measured response relative to a control, in per cent. Low readings indicate a response near the control, high ones a response far below the control. Take `O=c1c2c([nH]c(CO)c1-c1ccc(Oc3ccc(OC(F)(F)F)cc3)cc1)CCCC2` [JAG099]: in data set [3], testing at 1 µM gave an inhibition of 81.3 ± 6%. The “PBS Sol pH7.4” value in data set [4] was 4.05 μM.
As a reminder, the solubility is the dissolved amount per volume that the medium holds. In the case of `Cc1[nH]c2c(c(=O)c1-c1ccc(Oc3ccc(Cl)cc3)cc1)CCCC2` [JAG050], the “Concentration depolarizing the T. gondii mitochondrial membrane potential” value in data set [1] (permeabilized tachyzoites, safranin O) is at least 200 nM. For the same molecule, the “Toxicity to human cells in the in vitro model (HFF)” value in data set [2] was “not toxic”. Besides, in data set [4], the solubility amounted to 16 µM (≈ 5.85 µg/mL) and the “PBS Sol pH7.4” value came to 16.41 μM.
As a reminder, the Papp is a coefficient for how fast a substance crosses the barrier. Read a high Papp as ready permeation. The term efflux ratio denotes the permeability from basolateral to apical divided by that in the opposite direction, in the common usage. Turning to `Cc1[nH]c2c(c(=O)c1-c1ccc(Oc3ccccc3)cc1)CCCC2` [MJM170], in data set [5], the “T1/2 (M)” value is 20.97. In data set [6], the Papp was above 10 ×10⁻⁶ cm/s and the efflux ratio is below 1.5. The molecule also registered a solubility in data set [4] (phosphate buffered saline, pH 7.4, aqueous buffer, kinetic from dmso stock) of 2 µM (≈ 0.663 µg/mL). The “PBS Sol pH7.4” value in data set [4] came out at 1.97 μM.
`Cc1[nH]c2c(c(=O)c1-c1ccc(Oc3ccc(C(=O)O)cc3)cc1)CCCC2` [JAG046]: the “Effect on T. gondii mitochondrial membrane potential” value in data set [1] is given as “almost no effect”. Further, the “Toxicity* (highest concentration tested that does not show toxicity to HFF)” value in data set [2] is on record as “ND/5 μM”.

The values above are taken from patent US20230181564A1, “Potent Tetrahydroquinolone Eliminates Apicomplexan Parasites” (The University of Chicago, priority 2020, published 2023).
